Test results: patent US11427544B2, “Histone deacetylase 6 inhibitors and use thereof” (TAIPEI MEDICAL UNIVERSITY, priority 2016, dated 2022)

How the values were obtained:
[1] = test system: BJAB Burkitt lymphoma-derived B-cell; test: Tumor growth inhibition, BJAB xenograft; format: in vivo, athymic nude mice; conditions: qd, intraperitoneal
Protocol: (§1) An in vivo study was conducted to evaluate the efficacy of compounds of Formula (I) in suppressing tumor growth in multiple human cancer types.
(§2) Eight-week-old athymic nude mice were group-housed under conditions of constant photoperiod (12 h light/12 h dark at 21-23° C. and 60-85% humidity) with ad libitum access to sterilized food and water. All animal experiments followed ethical standards, and protocols were reviewed and approved by the Animal Use and Management Committee of National Taiwan University. Each mouse was inoculated subcutaneously with 1×10^6˜1×10^7 human cancer cells in a total volume of 0.1 mL serum-free medium containing 50% Matrigel (BD Biosciences). As tumors became established (˜100 mm^3), mice were randomized to various groups to be treated with pre-determined materials (n=6-8/group): (i) control group: 0.5% DMSO/0.5% Cremophor/90% D5W and (ii) treatment groups: Compounds 12 and 28 at pre-determined doses daily. Mice received treatment by intraperitoneal injection for the duration of the study. Tumors were measured weekly using calipers. Tumor size, in mm^3, was calculated according to the formula: Tumor volume=(w^2×l)/2, where w and 1 respectively represent the width and length (both in mm) of the tumor.

[2] = test system: A549 lung cancer cell line; test: Antiproliferative activity, A549; format: cell-based, human; conditions: Homo sapiens
Protocol: (§3) A study was conducted to evaluate the inhibitory activity of compounds of Formula (I) in inhibiting HDAC6, antiproliferative activity of test compounds in suppressing cancer cell growth, and selectivity of inhibiting HDAC6 over other HDAC isoforms.
(§4) The study was performed according to the protocol reported in Hsieh et al., Cell Death and Disease, 2014, April; 5:e1166.
(§5) Shown in Table 2 below are antiproliferative activities (measured by their half maximal concentration for inhibiting cell growth, i.e., GI50) of the test compounds against various cancer cell lines.

[3] = test system: scopolamine-induced memory deficit; test: Water maze test, scopolamine-treated rats; format: in vivo; conditions: gavage twice daily for seven days; scopolamine 1.5 mg/kg i.p.
Protocol: An in vivo study was conducted to evaluate the efficacy of compounds of Formula (I) in improving memory deficits associated with Alzheimer's disease.
Compound 12, Compound 28, suberanilohydroxamic acid (50 mg/kg) or vehicle was given to rats by gavage twice daily for seven days prior to behavioral experiments. On the day conducting a behavior assessment, rats in all groups except the control group were administered scopolamine (1.5 mg/kg) by intraperitoneal injection for 30 minutes before the assessment, then a water maze test or an elevated plus maze test was performed.

[4] = test system: PC-3 prostate cancer cell line; test: Antiproliferative activity, PC-3; format: cell-based, human; conditions: Homo sapiens
Protocol: as §3, §4, §5

[5] = Safety in ICR mice, 7-day intraperitoneal dosing; format: in vivo; conditions: 50, 100, and 200 mg/kg intraperitoneally once a day for 7 days, monitored another 7 days
Protocol: In addition, both Compounds 12 and 28 were studied to evaluate their safety in animals.
[…]. The animals were dosed intraperitoneally once a day for 7 days and then monitored for another 7 days. The animals were weighed daily for 1 week and then twice weekly.

[6] = test system: RPMI-8226 Multiple myeloma; test: Tumor growth inhibition, RPMI-8226 xenograft; format: in vivo, athymic nude mice; conditions: 50 mg/kg, qd
Protocol: as §1, §2

HDAC1 = target: T1, HDAC1 (Homo sapiens, UniProt Q13547); test: Fluorogenic HDAC assay, HDAC1; format: biochemical; conditions: recombinant HDAC1; read-out: Enzyme IC50 HDAC1
T1 construct: purchased BPS Bioscience Corp
T1 sequence (Q13547 whole entry): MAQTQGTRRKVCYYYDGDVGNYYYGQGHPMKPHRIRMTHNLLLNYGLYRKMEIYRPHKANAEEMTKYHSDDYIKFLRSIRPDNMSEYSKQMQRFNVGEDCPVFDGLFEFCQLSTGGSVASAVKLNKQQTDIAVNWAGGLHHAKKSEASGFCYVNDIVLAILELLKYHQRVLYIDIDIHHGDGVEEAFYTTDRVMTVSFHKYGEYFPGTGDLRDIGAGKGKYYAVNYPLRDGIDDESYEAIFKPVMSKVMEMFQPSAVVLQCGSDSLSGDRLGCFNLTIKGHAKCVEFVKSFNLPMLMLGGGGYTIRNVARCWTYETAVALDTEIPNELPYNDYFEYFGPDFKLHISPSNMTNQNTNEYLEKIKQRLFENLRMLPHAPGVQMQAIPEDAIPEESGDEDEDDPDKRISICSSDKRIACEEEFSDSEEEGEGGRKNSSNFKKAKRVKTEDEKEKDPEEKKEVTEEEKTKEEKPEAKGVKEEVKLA
Description: Of note, there are eighteen human HDACs. Eleven of them, designated as HDAC1-11, are zinc-dependent. Seven of them, designated as Sirt1-7, are NAD+-dependent.
Fluorogenic HDAC assay kits were used to assess the ability of HDAC inhibitors to inhibit deacetylation of lysine residues on a substrate by recombinant proteins HDAC1, 3, 4, 5, 6, 7, 8, 9 and Sirt1 according to the manufacturer's instructions (BPS Bioscience Corp., San Diego, Calif., USA).

[7] = test system: HL-60 Acute promyelocytic leukemia; test: Tumor growth inhibition, HL-60 xenograft; format: in vivo, athymic nude mice; conditions: qd, intraperitoneal
Protocol: as §1, §2

[8] = test system: RPMI8226, U266, and NCI-H929 multiple myeloma cell lines; test: Apoptosis in multiple myeloma cells, combined with bortezomib (propidium iodide, FACScan); format: cell-based, human; conditions: 24 hours
Protocol: A study was conducted to evaluate the effect of a compound of Formula (I) combined with bortezomib in inducing apoptosis in multiple myeloma cells.
To detect cell cycle progression, cells were incubated with or without the indicated agent for 24 hours, washed twice with ice-cold PBS, collected by centrifugation, and fixed in 70% (v/v) ethanol for 2 hours at −20° C. They were subsequently incubated for 30 minutes at room temperature with 0.2 mL of deoxyribonucleic acid (DNA) extraction buffer (0.2 M Na2HPO4 and 0.1 M citric acid buffer, pH 7.8), re-suspended in 1 mL of propidium iodide staining buffer (0.1% Triton X-100, 100 μg/mL of RNase A, and 80 μg/mL of propidium iodide in PBS), incubated at 37° C. for 30 minutes in darkness, sorted by FACScan, and analyzed using CellQuest software (BD Biosciences).
as §4

HDAC6-dynein binding = target: T2, HDAC6-dynein binding (Homo sapiens, UniProt Q9UBN7); test: HDAC6-dynein binding (immunoprecipitation, immunoblotting); format: cell-based; conditions: dose-dependent
T2 construct: endogenous in cells
T2 sequence (Q9UBN7 whole entry): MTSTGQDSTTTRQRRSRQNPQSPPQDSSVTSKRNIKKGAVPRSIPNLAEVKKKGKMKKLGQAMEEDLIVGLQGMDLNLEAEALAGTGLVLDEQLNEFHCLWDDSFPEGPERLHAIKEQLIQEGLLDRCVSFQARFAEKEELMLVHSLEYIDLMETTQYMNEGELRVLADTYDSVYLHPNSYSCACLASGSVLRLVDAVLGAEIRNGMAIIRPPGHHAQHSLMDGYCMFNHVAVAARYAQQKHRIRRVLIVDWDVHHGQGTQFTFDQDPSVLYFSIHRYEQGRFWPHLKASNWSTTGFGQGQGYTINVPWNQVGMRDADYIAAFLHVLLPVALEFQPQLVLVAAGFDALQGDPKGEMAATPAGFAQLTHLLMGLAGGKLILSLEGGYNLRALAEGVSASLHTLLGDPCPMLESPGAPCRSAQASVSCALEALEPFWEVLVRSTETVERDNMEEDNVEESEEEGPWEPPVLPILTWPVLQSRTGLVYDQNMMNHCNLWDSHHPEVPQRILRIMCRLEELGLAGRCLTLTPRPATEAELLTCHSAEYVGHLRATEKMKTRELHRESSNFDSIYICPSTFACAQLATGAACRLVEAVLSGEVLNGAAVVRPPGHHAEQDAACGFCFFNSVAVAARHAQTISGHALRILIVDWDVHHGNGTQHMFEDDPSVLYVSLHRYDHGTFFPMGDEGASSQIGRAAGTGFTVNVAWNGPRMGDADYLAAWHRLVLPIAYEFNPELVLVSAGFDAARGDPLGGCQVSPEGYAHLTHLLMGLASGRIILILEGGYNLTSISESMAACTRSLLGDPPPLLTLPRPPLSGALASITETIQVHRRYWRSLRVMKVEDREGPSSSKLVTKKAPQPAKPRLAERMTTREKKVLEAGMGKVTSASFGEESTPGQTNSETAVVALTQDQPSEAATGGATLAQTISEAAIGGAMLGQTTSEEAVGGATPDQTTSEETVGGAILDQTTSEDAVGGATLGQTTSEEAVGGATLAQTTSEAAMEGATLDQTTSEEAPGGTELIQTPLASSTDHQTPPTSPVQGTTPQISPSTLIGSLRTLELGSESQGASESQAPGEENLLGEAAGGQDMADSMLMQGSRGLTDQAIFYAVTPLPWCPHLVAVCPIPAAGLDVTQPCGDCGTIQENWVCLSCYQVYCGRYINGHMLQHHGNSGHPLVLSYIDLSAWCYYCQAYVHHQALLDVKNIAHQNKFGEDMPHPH
Protocol: A study was conducted to evaluate the activity of a compound of Formula (I) in inhibiting HDAC6-dynein binding and inducing accumulation of polyubiquited proteins.
Cell lysates were immunoprecipitated overnight at 4° C. with 1 μg of dynein antibody and A/G-agarose beads. The precipitated beads were washed three times with 1 mL of an ice-cold cell lysis buffer solution. The resulting immune complex was resolved by 10% SDS-PAGE gel electrophoresis, followed by immunoblotting assay using anti-HDAC6 Ab.
The study was performed according to the protocol reported in Chen et al., Journal of Immunology, 2008, 181(12):8441-8449.

[9] = test system: T98 Glioblastoma cell line; test: Antiproliferative activity, T98; format: cell-based, human; conditions: Homo sapiens, T98, T98
Protocol: as §3, §4, §5

MDA-MB-231 Breast = test: Tumor growth inhibition, MDA-MB-231 xenograft; format: in vivo, athymic nude mice; conditions: qd, intraperitoneal
Protocol: as §1, §2

## O=C(NO)c1ccc(CNc2cccc3cccnc23)cc1 [Compound 28, N-hydroxy-4-((quinolin-8-ylamino)methyl)benzamide]
[1]; 25 mg/kg
  % TGI: 40.8%
[1]; 50 mg/kg
  % TGI: 74.0%
[2]
  GI50: 5.24 ± 0.18 µM
[3]
  time spent in the correct quadrant (water maze): markedly reverse this effect
[4]
  GI50: 3.4 ± 0.13 µM
[5]
  tolerability: well tolerated
[6]; CR: complete regression
  Best Response: 2 × CR^a
[6]; intraperitoneal
  % TGI: 80.0%
HDAC1
  IC50: 6.7 µM
[7]; 25 mg/kg
  % TGI: 47.4%
[7]; 50 mg/kg
  % TGI: 61.1%
[8]
  induction of apoptosis: synergistically induced apoptosis
HDAC6-dynein binding
  HDAC6-dynein binding: inhibited HDAC6-dynein binding
[9]
  GI50: 9.89 ± 0.92 µM
MDA-MB-231 Breast; 25 mg/kg
  % TGI: 38.6%
MDA-MB-231 Breast; 50 mg/kg
  % TGI: 56.4%
